Values quoted from earlier work in patent US6245797A, “Combination therapy for reducing the risks associated with cardio-and-cerebrovascular disease” (Merck & Co., Inc., priority 1998, dated 2001).

Conditions: Scandinavian Simvastatin Survival Study, over the course of the 5 year study

## CCC(C)(C)C(=O)O[C@H]1C[C@@H](C)C=C2C=C[C@H](C)[C@H](CC[C@@H]3C[C@@H](O)CC(=O)O3)[C@H]21 [simvastatin]
  treated patients who die of their disease: 5%
